HELM strings list units from the 5' end as sugar, base in round brackets, then linkage (d deoxyribose, r ribose, m 2'-O-methyl, p phosphodiester). Strings are as the collection lists them; they lack the last nucleoside at the 3' end of the tested compound. [moe] = 2'-O-(2-methoxyethyl) (MOE); [sp] = phosphorothioate linkage; [m5C] = 5-methylcytosine

This data set concerns the target LRRK2. The data set is described as follows: mouse, dose not given. To be noted: ASO.
“RNA1{[moe]([m5C])[sp].[moe](T)p.[moe](T)p.[moe](T)p.[moe]([m5C])[sp].d(A)[sp].d([m5C])[sp].d(T)[sp].d([m5C])[sp].d(A)[sp].d(T)[sp].d(A)[sp].d(G)[sp].d(G)[sp].d(G)[sp].[moe](A)p.[moe](A)p.[moe](T)[sp].[moe](G)}$$$$ (last 3' nucleoside missing)” showed a 3 h FOB score of 2.5 score 0-7. On to “RNA1{[moe]([m5C])[sp].[moe](T)p.[moe](T)p.[moe]([m5C])p.[moe](A)[sp].d(G)[sp].d(T)[sp].d(T)[sp].d([m5C])[sp].d([m5C])[sp].d(T)[sp].d(T)[sp].d([m5C])[sp].d(A)[sp].d(G)[sp].[moe](T)p.[moe]([m5C])p.[moe](T)[sp].[moe]([m5C])}$$$$ (last 3' nucleoside missing)”, for which the 3 h FOB score worked out at 4 score 0-7. With “RNA1{[moe]([m5C])[sp].[moe](T)p.[moe]([m5C])p.[moe](A)p.[moe](T)[sp].d(A)[sp].d(T)[sp].d([m5C])[sp].d(T)[sp].d(A)[sp].d(A)[sp].d(A)[sp].d(G)[sp].d(A)[sp].d([m5C])[sp].[moe]([m5C])p.[moe](G)p.[moe]([m5C])[sp].[moe](A)}$$$$ (last 3' nucleoside missing)”, the 3 h FOB score was determined as 1 score 0-7. As to “RNA1{[moe]([m5C])[sp].[moe]([m5C])p.[moe](A)[sp].[moe]([m5C])[sp].[moe](A)[sp].d(A)[sp].d(A)[sp].d([m5C])[sp].d(T)[sp].d([m5C])[sp].d(A)[sp].d(T)[sp].d(G)[sp].d(G)[sp].d(A)[sp].[moe]([m5C])[sp].[moe](T)p.[moe](T)[sp].[moe]([m5C])}$$$$ (last 3' nucleoside missing)”, the 3 h FOB score stood at 7 score 0-7.

Substance “RNA1{[moe]([m5C])[sp].[moe]([m5C])p.[moe](A)[sp].[moe]([m5C])[sp].[moe](A)[sp].d(A)[sp].d(A)[sp].d([m5C])[sp].d(T)[sp].d([m5C])[sp].d(A)[sp].d(T)[sp].d(G)[sp].d(G)[sp].d(A)[sp].[moe]([m5C])p.[moe](T)p.[moe](T)[sp].[moe]([m5C])}$$$$ (last 3' nucleoside missing)” had a 3 h FOB score of 5 score 0-7. “RNA1{[moe]([m5C])[sp].[moe]([m5C])p.[moe](A)p.[moe](T)p.[moe](A)[sp].d(T)[sp].d(T)[sp].d(T)[sp].d(A)[sp].d(G)[sp].d([m5C])[sp].d(T)[sp].d(T)[sp].d(A)[sp].d(T)[sp].[moe](G)p.[moe](A)p.[moe](T)[sp].[moe](G)}$$$$ (last 3' nucleoside missing)” registered a 3 h FOB score of 7 score 0-7.

Regarding “RNA1{[moe]([m5C])[sp].[moe]([m5C])p.[moe](A)p.[moe]([m5C])p.[moe](A)[sp].d(A)[sp].d(A)[sp].d([m5C])[sp].d(T)[sp].d([m5C])[sp].d(A)[sp].d(T)[sp].d(G)[sp].d(G)[sp].d(A)[sp].[moe]([m5C])p.[moe](T)p.[moe](T)[sp].[moe]([m5C])}$$$$ (last 3' nucleoside missing)”, the 3 h FOB score is 6 score 0-7.

With “RNA1{[moe]([m5C])[sp].[moe]([m5C])p.[moe](T)[sp].[moe](G)[sp].[moe](A)[sp].d([m5C])[sp].d(A)[sp].d(T)[sp].d(T)[sp].d(G)[sp].d([m5C])[sp].d([m5C])[sp].d(A)[sp].d([m5C])[sp].d(T)[sp].[moe]([m5C])[sp].[moe](A)p.[moe](T)[sp].[moe](G)}$$$$ (last 3' nucleoside missing)”, the 3 h FOB score worked out at 4 score 0-7.
